Experimental data as given in US20170190671A1, “BIS(ARYL)CATECHOL DERIVATIVES AS HERBICIDES” (E I DU PONT DE NEMOURS AND COMPANY, priority 2014, published 2017).

Assays:
Assay type in all cases: in vivo
[1] = test system: galium (catchweed bedstraw, Galium aparine); assay: Test C postemergence; details: Galium, post-emergence, 336 h, Postemergence, scale 0 to 100, read-out: Plant response rating, Galium
From the text: (§1) Seeds of plant species selected from blackgrass (Alopecurus myosuroides), Italian ryegrass (Lolium multiflorum), winter wheat (Triticum aestivum), galium (catchweed bedstraw, Galium aparine), corn (Zea mays), large (Lg) crabgrass (Digitaria sanguinalis), giant foxtail (Setaria faberii), johnsongrass (Sorghum halepense), lambsquarters (Chenopodium album), morningglory (Ipomoea coccinea), yellow nutsedge (Cyperus esculentus), pigweed (Amaranthus retroflexus), ragweed (common ragweed, Ambrosia elatior), soybean (Glycine max), barnyardgrass (Echinochloa crus-galli), oilseed rape (Brassica napus), waterhemp (common waterhemp, Amaranthus rudis), and velvetleaf (Abutilon theophrasti) were planted into a blend of loam soil and sand and treated preemergence with test chemicals formulated in a non-phytotoxic solvent mixture which included a surfactant.
(§2) At the same time, plants selected from these crop and weed species and also chickweed (common chickweed, Stellaria media), kochia (Kochia scoparia), and wild oat (Avena fatua), were planted in pots containing Redi-Earth® planting medium (Scotts Company, 14111 Scottslawn Road, Marysville, Ohio 43041) comprising spaghnum peat moss, vermiculite, wetting agent and starter nutrients and treated with postemergence applications of test chemicals formulated in the same manner. Plants ranged in height from 2 to 18 cm (1- to 4-leaf stage) for postemergence treatments. Treated plants and controls were maintained in a greenhouse for 13 to 15 days, after which time all species were compared to controls and visually evaluated. Plant response ratings, summarized in Table C, are based on a scale of 0 to 100 where 0 is no effect and 100 is complete control. A dash (-) response means no test result.

kochia (Kochia scoparia) = assay: Test C postemergence; details: Bassia scoparia, post-emergence, Postemergence, scale 0 to 100, read-out: Plant response rating, Kochia
From the text: as §1, §2

[2] = test system: large (Lg) crabgrass (Digitaria sanguinalis); assay: Test C postemergence; details: Digitaria sanguinalis, post-emergence, 336 h, Postemergence, scale 0 to 100, read-out: Plant response rating, Crabgrass, Large
From the text: as §1, §2

[3] = test system: morningglory (Ipomoea coccinea); assay: Test C postemergence; details: Ipomoea, post-emergence, 336 h, Postemergence, scale 0 to 100, read-out: Plant response rating, Morningglory
From the text: as §1, §2

[4] = test system: velvetleaf (Abutilon theophrasti); assay: Test C postemergence; details: Abutilon theophrasti, post-emergence, Postemergence, scale 0 to 100, read-out: Plant response rating, Velvetleaf
From the text: as §1, §2

[5] = test system: winter wheat (Triticum aestivum); assay: Test C postemergence; details: Triticum aestivum, post-emergence, 336 h, Postemergence, scale 0 to 100, read-out: Plant response rating, Wheat
From the text: as §1, §2

[6] = test system: barnyardgrass (Echinochloa crus-galli); assay: Test C preemergence; details: scale 0 to 100
Procedure, shortened: (§3)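 Seeds sown in a loam soil and sand blend were treated preemergence; plants in peat-moss/vermiculite medium were sprayed at the 1- to 4-leaf stage (2-18 cm). Chemicals were in a non-phytotoxic surfactant-containing solvent. After 13 to 15 days in a greenhouse, injury was visually rated against controls on a 0-100 scale.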

[7] = test system: blackgrass (Alopecurus myosuroides); assay: Test C preemergence; details: scale 0 to 100
Procedure, shortened: as §3

corn (Zea mays) = assay: Test C preemergence; details: scale 0 to 100
Procedure, shortened: as §3

[8] = test system: galium (catchweed bedstraw, Galium aparine); assay: Test C preemergence; details: scale 0 to 100
Procedure, shortened: as §3

[9] = test system: giant foxtail (Setaria faberii); assay: Test C preemergence; details: scale 0 to 100
Procedure, shortened: as §3

[10] = test system: johnsongrass (Sorghum halepense); assay: Test C preemergence; details: scale 0 to 100
Procedure, shortened: as §3

[11] = test system: lambsquarters (Chenopodium album); assay: Test C preemergence; details: scale 0 to 100
Procedure, shortened: as §3

[12] = test system: large (Lg) crabgrass (Digitaria sanguinalis); assay: Test C preemergence; details: scale 0 to 100
Procedure, shortened: as §3

[13] = test system: morningglory (Ipomoea coccinea); assay: Test C preemergence; details: scale 0 to 100
Procedure, shortened: as §3

[14] = test system: oilseed rape (Brassica napus); assay: Test C preemergence; details: scale 0 to 100
Procedure, shortened: as §3

[15] = test system: pigweed (Amaranthus retroflexus); assay: Test C preemergence; details: scale 0 to 100
Procedure, shortened: as §3

[16] = test system: ragweed (common ragweed, Ambrosia elatior); assay: Test C preemergence; details: scale 0 to 100
Procedure, shortened: as §3

soybean (Glycine max) = assay: Test C preemergence; details: scale 0 to 100
Procedure, shortened: as §3

[17] = test system: velvetleaf (Abutilon theophrasti); assay: Test C preemergence; details: scale 0 to 100
Procedure, shortened: as §3

[18] = test system: winter wheat (Triticum aestivum); assay: Test C preemergence; details: scale 0 to 100
Procedure, shortened: as §3

[19] = test system: yellow nutsedge (Cyperus esculentus); assay: Test C preemergence; details: scale 0 to 100
Procedure, shortened: as §3

## Fc1cccc(Oc2ncc(Cl)cn2)c1Oc1ccc(Cl)nc1 [Compound 20]
[1]; 31 g ai/ha
  pest or weed control at 31 g/ha: 50%
[1]; 62 g ai/ha
  pest or weed control at 62 g/ha: 50%
[1]; 125 g ai/ha
  pest or weed control at 125 g/ha: 70%
[1]; 250 g ai/ha
  pest or weed control at 250 g/ha: 95%
Kochia (Kochia scoparia); 31 g ai/ha
  pest or weed control at 31 g/ha: 80%
Kochia (Kochia scoparia); 62 g ai/ha
  pest or weed control at 62 g/ha: 90%
Kochia (Kochia scoparia); 125 g ai/ha
  pest or weed control at 125 g/ha: 90%
Kochia (Kochia scoparia); 250 g ai/ha
  pest or weed control at 250 g/ha: 98%
[2]; 31 g ai/ha
  pest or weed control at 31 g/ha: 5%
[2]; 62 g ai/ha
  pest or weed control at 62 g/ha: 5%
[2]; 125 g ai/ha
  pest or weed control at 125 g/ha: 10%
[2]; 250 g ai/ha
  pest or weed control at 250 g/ha: 20%
[3]; 31 g ai/ha
  pest or weed control at 31 g/ha: 30%
[3]; 62 g ai/ha
  pest or weed control at 62 g/ha: 60%
[3]; 125 g ai/ha
  pest or weed control at 125 g/ha: 65%
[3]; 250 g ai/ha
  pest or weed control at 250 g/ha: 65%
[4]; 31 g ai/ha
  pest or weed control at 31 g/ha: 35%
[4]; 62 g ai/ha
  pest or weed control at 62 g/ha: 30%
[4]; 125 g ai/ha
  pest or weed control at 125 g/ha: 35%
[4]; 250 g ai/ha
  pest or weed control at 250 g/ha: 55%
[5]; 31 g ai/ha
  plant injury at 31 g/ha: 0%
[5]; 62 g ai/ha
  plant injury at 62 g/ha: 0%
[5]; 125 g ai/ha
  plant injury at 125 g/ha: 5%
[5]; 250 g ai/ha
  plant injury at 250 g/ha: 5%

## FC(F)(F)c1cnc(Oc2c(Br)cccc2Oc2ncc(Cl)cn2)nc1 [Compound 24]
[6]; 31 g ai/ha, Preemergence
  Plant response rating, Barnyardgrass: 75
[6]; 62 g ai/ha, Preemergence
  Plant response rating, Barnyardgrass: 100
[6]; 125 g ai/ha, Preemergence
  Plant response rating, Barnyardgrass: 100
[6]; 250 g ai/ha, preemergence
  Plant response rating, Barnyardgrass: 100
[7]; 31 g ai/ha, Preemergence
  Plant response rating, Blackgrass: 60
[7]; 62 g ai/ha, Preemergence
  Plant response rating, Blackgrass: 95
[7]; 125 g ai/ha, Preemergence
  Plant response rating, Blackgrass: 95
[7]; 250 g ai/ha, preemergence
  Plant response rating, Blackgrass: 95
Corn (Zea mays); 31 g ai/ha, Preemergence
  Plant response rating, Corn: 5
Corn (Zea mays); 62 g ai/ha, Preemergence
  Plant response rating, Corn: 20
Corn (Zea mays); 125 g ai/ha, Preemergence
  Plant response rating, Corn: 45
Corn (Zea mays); 250 g ai/ha, preemergence
  Plant response rating, Corn: 65
[8]; 31 g ai/ha, Preemergence
  Plant response rating, Galium: 98
[8]; 62 g ai/ha, Preemergence
  Plant response rating, Galium: 98
[8]; 125 g ai/ha, Preemergence
  Plant response rating, Galium: 100
[8]; 250 g ai/ha, preemergence
  Plant response rating, Galium: 100
[9]; 31 g ai/ha, Preemergence
  Plant response rating, Foxtail, Giant: 98
[9]; 62 g ai/ha, Preemergence
  Plant response rating, Foxtail, Giant: 98
[9]; 125 g ai/ha, Preemergence
  Plant response rating, Foxtail, Giant: 100
[9]; 250 g ai/ha, preemergence
  Plant response rating, Foxtail, Giant: 100
[10]; 31 g ai/ha, Preemergence
  Plant response rating, Johnsongrass: 40
[10]; 62 g ai/ha, Preemergence
  Plant response rating, Johnsongrass: 55
[10]; 125 g ai/ha, Preemergence
  Plant response rating, Johnsongrass: 80
[10]; 250 g ai/ha, preemergence
  Plant response rating, Johnsongrass: 100
[11]; 31 g ai/ha, Preemergence
  Plant response rating, Lambsquarters: 75
[11]; 62 g ai/ha, Preemergence
  Plant response rating, Lambsquarters: 90
[11]; 125 g ai/ha, Preemergence
  Plant response rating, Lambsquarters: 98
[11]; 250 g ai/ha, preemergence
  Plant response rating, Lambsquarters: 98
[12]; 31 g ai/ha, Preemergence
  Plant response rating, Crabgrass, Large: 100
[12]; 62 g ai/ha, Preemergence
  Plant response rating, Crabgrass, Large: 100
[12]; 125 g ai/ha, Preemergence
  Plant response rating, Crabgrass, Large: 100
[12]; 250 g ai/ha, preemergence
  Plant response rating, Crabgrass, Large: 100
[13]; 31 g ai/ha, Preemergence
  Plant response rating, Morningglory: 25
[13]; 62 g ai/ha, Preemergence
  Plant response rating, Morningglory: 85
[13]; 125 g ai/ha, Preemergence
  Plant response rating, Morningglory: 80
[13]; 250 g ai/ha, preemergence
  Plant response rating, Morningglory: 95
[14]; 31 g ai/ha, Preemergence
  Plant response rating, Oilseed Rape: 80
[14]; 62 g ai/ha, Preemergence
  Plant response rating, Oilseed Rape: 100
[14]; 125 g ai/ha, Preemergence
  Plant response rating, Oilseed Rape: 100
[14]; 250 g ai/ha, preemergence
  Plant response rating, Oilseed Rape: 100
[15]; 31 g ai/ha, Preemergence
  Plant response rating, Pigweed: 100
[15]; 62 g ai/ha, Preemergence
  Plant response rating, Pigweed: 100
[15]; 125 g ai/ha, Preemergence
  Plant response rating, Pigweed: 100
[15]; 250 g ai/ha, preemergence
  Plant response rating, Pigweed: 100
[16]; 31 g ai/ha, Preemergence
  Plant response rating, Ragweed: 10
[16]; 62 g ai/ha, Preemergence
  Plant response rating, Ragweed: 10
[16]; 125 g ai/ha, Preemergence
  Plant response rating, Ragweed: 30
[16]; 250 g ai/ha, preemergence
  Plant response rating, Ragweed: 80
Soybean (Glycine max); 62 g ai/ha, Preemergence
  Plant response rating, Soybean: 40
Soybean (Glycine max); 125 g ai/ha, Preemergence
  Plant response rating, Soybean: 50
Soybean (Glycine max); 250 g ai/ha, preemergence
  Plant response rating, Soybean: 85
[17]; 31 g ai/ha, Preemergence
  Plant response rating, Velvetleaf: 40
[17]; 62 g ai/ha, Preemergence
  Plant response rating, Velvetleaf: 85
[17]; 125 g ai/ha, Preemergence
  Plant response rating, Velvetleaf: 90
[17]; 250 g ai/ha, preemergence
  Plant response rating, Velvetleaf: 90
[18]; 31 g ai/ha, Preemergence
  Plant response rating, Wheat: 15
[18]; 62 g ai/ha, Preemergence
  Plant response rating, Wheat: 30
[18]; 125 g ai/ha, Preemergence
  Plant response rating, Wheat: 60
[18]; 250 g ai/ha, preemergence
  Plant response rating, Wheat: 90
[19]; 31 g ai/ha, Preemergence
  Plant response rating, Nutsedge, Yellow: 10
[19]; 62 g ai/ha, Preemergence
  Plant response rating, Nutsedge, Yellow: 10
[19]; 125 g ai/ha, Preemergence
  Plant response rating, Nutsedge, Yellow: 30
[19]; 250 g ai/ha, preemergence
  Plant response rating, Nutsedge, Yellow: 60
